Here are results for 25 compounds from patent US10183918B2, “Oxa-azaspiro compounds having activity against pain” (LABORATORIOS DEL DR. ESTEVE S.A., priority 2015, dated 2019).

The target of the first assay is T1, human σ1 receptor (Homo sapiens, UniProt Q99720).
T1 construct: expressed in transfected cells; host or cells: HEK-293 (membranes)
T1 sequence (Q99720 whole entry): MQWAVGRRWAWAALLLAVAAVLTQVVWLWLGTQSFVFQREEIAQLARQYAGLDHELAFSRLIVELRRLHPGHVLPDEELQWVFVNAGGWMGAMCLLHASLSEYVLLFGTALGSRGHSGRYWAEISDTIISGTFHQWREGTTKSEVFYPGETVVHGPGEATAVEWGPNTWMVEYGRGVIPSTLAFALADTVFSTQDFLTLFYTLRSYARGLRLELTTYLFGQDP
The experiment in a line: Human σ1 receptor radioligand assay. The format is binding. Particulars: transfected HEK-293 membranes, 5 nM [3H](+)-pentazocine as radioligand. How it is done:
Human σ1 Receptor Radioligand Assay
To investigate binding properties of test compounds to human σ1 receptor, transfected HEK-293 membranes and [^3H](+)-pentazocine (Perkin Elmer, NET-1056), as the radioligand, were used. The assay was carried out with 7 μg of membrane suspension, 5 nM of [^3H](+)-pentazocine in either absence or presence of either buffer or 10 μM Haloperidol for total and non-specific binding, respectively. Binding buffer contained Tris-HCl 50 mM at pH 8. Plates were incubated at 37° C. for 120 minutes. After the incubation period, the reaction mix was then transferred to Multiscreen HTS, FC plates (Millipore), filtered and plates were washed 3 times with ice-cold 10 mM Tris-HCL (pH7.4). Filters were dried and counted at approximately 40% efficiency in a MicroBeta scintillation counter (Perkin-Elmer) using EcoScint liquid scintillation cocktail
Broadly, the Ki is the equilibrium dissociation constant of an inhibitor or competing ligand from its target. `CC(C)CCN(C)[C@H]1CC[C@]2(CC1)CN(c1ccccc1)C(=O)C1(CC1)O2` [Example 30, (5r,8r)-8-[methyl(3-methylbutyl)amino]-12-phenyl-4-oxa-12-azadispiro[2.1.5.3]tridecan-13-one] had an inhibition constant Ki below 100 nM. The same measure, in the same setting: the figure for `CCN1C[C@]2(CC[C@@H](NC)CC2)OC2(CC2)C1=O` [Example 21, (5r,8r)-12-ethyl-8-(methylamino)-4-oxa-12-azadispiro[2.1.5.3]tridecan-13-one acetate] is at least 500 nM; for `CN[C@H]1CC[C@]2(CC1)CN(c1ccccc1)CC1(CC1)O2` [Example 26, (5r,8r)-N-rnethyl-12-phenyl-4-oxa-12-azadispiro[2.1.5.3]tridecan-8-amine acetate] it is at least 500 nM. Same read-out and setting: next, `CN[C@H]1CC[C@@]2(CC1)CN(c1ccccc1)C(=O)C1(CC1)O2` [Example 23, (5s,8s)-8-(methylamino)-12-phenyl-4-oxa-12-azadispiro[2.1.5.3]tridecan-13-one acetate]: at least 500 nM. Regarding `CCN1C[C@]2(CC[C@H](N(C)CCC(C)C)CC2)OC(C)(C)C1=O` [Example 53, (6s,9s)-4-ethyl-9-(isopentyl(methyl)amino)-2,2-dimethyl-1-oxa-4-azaspiro[5.5]undecan-3-one], the inhibition constant Ki was below 500 nM. For `CN[C@H]1CC[C@]2(CC1)CN(c1ccccc1)C(=O)C1(CC1)O2` [Example 24, (5r,8r)-8-(methylamino)-12-phenyl-4-oxa-12-azadispiro[2.1.5.3]tridecan-13-one acetate], the inhibitory constant (Ki) was at least 500 nM. Consider `CN(Cc1ccccc1)[C@H]1CC[C@]2(CC1)CN(C(=O)c1ccccc1)CC1(CC1)O2` [Example 46, ((5r,8r)-8-[Benzyl(methyl)amino]-4-oxa-12-azadispiro[2.1.5.3]tridecan-12-yl)(phenyl)methanone], for which the Ki was below 500 nM. Still for that read-out and setting: the figure for `CN(Cc1ccccc1)[C@H]1CC[C@@]2(CC1)CN(c1ccccc1)C(=O)C1(CC1)O2` [Example 8, (5s,8s)-8-[benzyl(methyl)amino]-12-phenyl-4-oxa-12-azadispiro[2.1.5.3]tridecan-13-one] is below 100 nM; for `CC(C)CCN(C)[C@H]1CC[C@@]2(CC1)CN(c1ccccc1)C(=O)C1(CC1)O2` [Example 29, (5s,8s)-8-[methyl(3-methylbutyl)amino]-12-phenyl-4-oxa-12-azadispiro[2.1.5.3]tridecan-13-one] it is below 500 nM. For `CCN1CCO[C@]2(CC[C@@H](N(C)CCc3ccccc3)CC2)C1` [Example 61, (6s,9s)-4-ethyl-N-methyl-N-phenethyl-1-oxa-4-azaspiro[5.5]undecan-9-amine], the Ki was below 100 nM. In the case of `CCN1C[C@]2(CC[C@H](N(C)CCc3ccccc3)CC2)OC(C)(C)C1=O` [Example 55, (6s,9s)-4-ethyl-2,2-dimethyl-9-(methyl(phenethyl)amino)-1-oxa-4-azaspiro[5.5]undecan-3-one], the inhibition constant (Ki) was below 100 nM. In the case of `CCN1CC(C)(C)O[C@]2(CC[C@@H](N(C)Cc3ccccc3)CC2)C1` [Example 62, (6s,9s)-N-benzyl-4-ethyl-N,2,2-trimethyl-1-oxa-4-azaspiro[5.5]undecan-9-amine], the Ki was below 100 nM. `CCN1C[C@]2(CC[C@H](N(C)CCc3ccccc3)CC2)OCC1=O` [Example 51, (6s,9s)-4-ethyl-9-(methyl(phenethyl)amino)-1-oxa-4-azaspiro[5.5]undecan-3-one] showed a Ki below 500 nM.

In the case of `CCN1C[C@]2(CC[C@H](NC)CC2)OCC1=O` [Example 47, (6s,9s)-4-ethyl-9-(methylamino)-1-oxa-4-azaspiro[5.5]undecan-3-one acetate], the Ki is at least 500 nM.

The compound `CC(C)CN(C)[C@H]1CC[C@@]2(CC1)CN(Cc1ccccc1)CC1(CC1)O2` [Example 68, (5s,8s)-12-benzyl-N-isobutyl-N-methyl-4-oxa-12-azadispiro[2.1.5.3]tridecan-8-amine] registered a Ki below 100 nM. Regarding `CN(CCc1ccccc1)[C@H]1CC[C@]2(CC1)CN(c1ccccc1)C(=O)C1(CC1)O2` [Example 15, (5r,8r)-8-[methyl(2-phenylethyl)amino]-12-phenyl-4-oxa-12-azadispiro[2.1.5.3]tridecan-13-one], the Ki is below 500 nM. Same read-out and setting: the figure for `CCN1C[C@]2(CC[C@H](NCc3ccccc3)CC2)OC2(CC2)C1=O` [Example 1, (5s,8s)-8-(benzylamino)-12-ethyl-4-oxa-12-azadispiro[2.1.5.3]tridecan-13-one] is at least 500 nM.

With `CN[C@H]1CC[C@@]2(CC1)CN(C(=O)c1ccccc1)CC1(CC1)O2` [Example 50, ((5s,8s)-8-(methylamino)-4-oxa-12-azadispiro[2.1.5.3]tridecan-12-yl)(phenyl)methanone acetate], the Ki is at least 500 nM. On the same count and under the same terms, next, `CCN1C[C@]2(CC[C@@H](N(C)CCc3ccccc3)CC2)OC2(CC2)C1=O` [Example 4, (5r,8r)-12-ethyl-8-[methyl(2-phenylethyl)amino]-4-oxa-12-azadispiro[2.1.5.3]tridecan-13-one]: below 100 nM; `CCN1C[C@]2(CC[C@H](N(C)CCc3ccccc3)CC2)OC2(CC2)C1=O` [Example 3, (5s,8s)-12-ethyl-8[methyl(2-phenylethyl)amino]-4-oxa-12-azadispiro[2.1.5.3]tridecan-13-one]: below 100 nM; `CCN1C[C@]2(CC[C@@H](N(C)CCC(C)C)CC2)OC(C)(C)C1=O` [Example 57, (6r,9r)-4-ethyl-9-(isopentyl(methyl)amino)-2,2-dimethyl-1-oxa-4-azaspiro[5.5]undecan-3-one]: below 100 nM. Still for that read-out and setting: the figure for `CN[C@H]1CC[C@@]2(CC1)CN(c1ccccc1)CC1(CC1)O2` [Example 25, (5s,8s)-N-methyl-12-phenyl-4-oxa-12-azadispiro[2.1.5.3]tridecan-8-amine acetate] is at least 500 nM; for `CN(CCc1ccccc1)[C@H]1CC[C@]2(CC1)CN(c1ccccc1)CC1(CC1)O2` [Example 34, (5r,8r)-N-methyl-12-phenyl-N-(2-phenylethyl)-4-oxa-12-azadispiro[2.1.5.3]tridecan-8-amine] it is below 100 nM; for `CN(CCc1ccccc1)[C@H]1CC[C@@]2(CC1)CN(C(=O)c1ccccc1)CC1(CC1)O2` [Example 58, ((5s,8s)-8-[methyl(phenethyl)amino]-4-oxa-12-azadispiro[2.1.5.3]tridecan-12-yl)(phenyl)methanone] it is below 500 nM.

In the next assay the target is sigma-2 (σ2) site (Homo sapiens, UniProt Q5BJF2).
Sequence of sigma-2 (σ2) site (Q5BJF2 whole entry): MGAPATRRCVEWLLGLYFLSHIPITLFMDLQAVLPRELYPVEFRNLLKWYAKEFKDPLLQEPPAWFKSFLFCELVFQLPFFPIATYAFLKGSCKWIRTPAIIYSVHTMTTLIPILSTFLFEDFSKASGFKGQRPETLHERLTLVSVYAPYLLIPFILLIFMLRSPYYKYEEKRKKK
Experiment: not given
Particulars: result in words, background; cited from earlier work.
Consider (+)SKF-10047, for which the “affinity for the sigma-2 (σ2) site” value is listed as “micromolar affinity”.
